Test results as given in patent US10144713B1, “Bis-cyclic guanidines as antibacterial agents” (UNIVERSITY OF SOUTH FLORIDA, priority 2017, dated 2018).
Where two headings read alike, the source gives them in different places.

What was measured:
Type in all cases: cell-based
[1] = system: E. coli (ATCC 25922); experiment: MIC against E. coli; settings: Gram −, 16 h, 37° C.; for MIC: Escherichia coli, ATCC25922
Procedure: (§1) Minimum Inhibitory Concentrations (MICs) Against Bacteria.
(§2) The antimicrobial activity of the compounds was tested on the following six bacteria strains: K. pneumoniae (ATCC 13383), P. aeruginosa (ATCC27853), E. coli (ATCC 25922), vancomycin-resistant Enterococcus faecalis(ATCC 700802), Methicillin-resistant S. aureus (MRSA, ATCC 33591), Methicillin-resistant S. epidermidis (MRSE, RP62A). The procedures were followed as reported previously (Hancock et al., Immunobiology 2006, 211, 315-322). Briefly, a single colony of each bacterium was inoculated in 3 mL TSB medium and incubated overnight at 37° C. Then the bacteria culture was diluted at 1:100 and the bacteria were allowed to grow to mid-logarithmic phase. Next, 50 μL of 2-fold serial dilutions of compounds (0.1-25 μg/mL) were added the 96-well plate containing aliquots of 50 μL of bacteria suspension (1×10^6 CFU/mL) in each well. The mixture was incubated at 37° C. for 16 h, and their absorption at 600 nm wavelength was read on a Biotek Synergy HT microtiter plate reader. […] The experiments were repeated at least three times with duplicates each time. HC50 means the concentration causing 50% hemolysis.

[2] = system: Methicillin-resistant S. aureus (MRSA, ATCC 33591); experiment: MIC against MRSA; settings: Gram +, 16 h, 37° C.; for MIC: Staphylococcus aureus
Procedure: as §1, §2

[3] = system: K. pneumoniae (ATCC 13383); experiment: MIC against K. pneumoniae; settings: Gram −, 16 h, 37° C.; for MIC: Klebsiella pneumoniae, ATCC13383
Procedure: as §1, §2

[4] = system: P. aeruginosa (ATCC27853); experiment: MIC against P. aeruginosa; settings: for MIC: Pseudomonas aeruginosa, ATCC27853
Procedure: as §1, §2

[5] = system: Methicillin-resistant S. epidermidis (MRSE, RP62A); experiment: MIC against MRSE; settings: Gram +, 16 h, 37° C.; for MIC: Staphylococcus epidermidis, MRSE
Procedure: as §1, §2

[6] = system: vancomycin-resistant Enterococcus faecalis (ATCC 700802); experiment: MIC against VRE; settings: Gram +; 16 h, 37° C.
Procedure: as §1, §2

[7] = system: human red blood cells (hRBCs); experiment: Hemolytic assay; settings: for Hemolysis (HC50): concentration causing 50% hemolysis, hRBCs, 37° C., 1 h
Procedure: The freshly drawn, K2EDTA treated human red blood cells (hRBCs) were washed with 1×PBS buffer, and centrifuged at 3500 rpm for 10 min. The step was repeated until the supernatant became clear. The supernatant was removed, and the RBCs were diluted into 5% v/v suspension. 50 μL of the suspension was incubated with 50 μL of compounds of different concentrations at 37° C. for 1 h. The mixture was centrifuged at 3500 rpm for 10 min. Subsequently, to 30 μL of the supernatant 100 μL PBS was added, and the absorbance of the mixture at 540 nm was read on a Biotek Synergy HT plate reader. The positive control was 2% Triton X-100, and the negative control was 1×PBS alone. The hemolysis activity was calculated by the formula % hemolysis=(Abssample−AbsPBS)/(AbsTriton−AbsPBS)×100%. The experiment was repeated at least three times with duplicates each time.

[8] = system: six bacteria strains (K. pneumoniae, P. aeruginosa, E. coli, VRE, MRSA, MRSE); experiment: Antimicrobial activity on the panel of six bacteria strains
Procedure: as §1, §2

[9] = read-out: MIC against Gram-positive bacteria
[10] = read-out: MIC for Gram-negative bacteria (except for P. aeruginosa)

Compound	MIC [1]	MIC [2]	MIC [3]	MIC ([4]; Gram −, 16 h, 37° C.)	MIC [5]	MIC [6]	Hemolysis (HC50) [7]	other results
N=C1N[C@@H](Cc2ccccc2)CN1CC(=O)NCCCCNC(=O)CN1C[C@H](Cc2ccccc2)NC1=N [Compound 1]	> 25 µg/mL	> 25 µg/mL	–	–	–	–	–	–
CCN1C(=N)N(CC(=O)Nc2ccc(NC(=O)CN3C[C@H](Cc4ccccc4)N(CC)C3=N)cc2)C[C@@H]1Cc1ccccc1 [Compound 3]	1.5 µg/mL	6 to 12 µg/mL	> 25 µg/mL	> 25 µg/mL	> 25 µg/mL	> 25 µg/mL	–	MIC MRSA [2]: 6~12 μg/mL
CCN1C(=N)N(CC(=O)Nc2cccc(NC(=O)CN3C[C@H](Cc4ccccc4)N(CC)C3=N)c2)C[C@@H]1Cc1ccccc1 [Compound 4]	3 µg/mL	6 to 12 µg/mL	> 25 µg/mL	> 25 µg/mL	> 25 µg/mL	> 25 µg/mL	–	MIC E. coli [1]: 3.0 µg/mL; MIC MRSA [2]: 6~12 μg/mL
N=C1N(CC(=O)Nc2ccc(NC(=O)CN3C[C@H](Cc4ccccc4)N(CCCc4ccccc4)C3=N)cc2)C[C@H](Cc2ccccc2)N1CCCc1ccccc1 [Compound 5]	1.5 to 3 µg/mL	0.33 µg/mL	1.5 to 3 µg/mL	12 to 25 µg/mL	0.75 µg/mL	0.75 µg/mL	140 µg/mL	MIC [8, 9]: < 3 µg/mL; MIC [8, 10]: < 3 µg/mL
N=C1N(CC(=O)Nc2cccc(NC(=O)CN3C[C@H](Cc4ccccc4)N(CCCc4ccccc4)C3=N)c2)C[C@H](Cc2ccccc2)N1CCCc1ccccc1 [Compound 6]	3 to 6 µg/mL	1.5 to 3 µg/mL	3 µg/mL	12 to 25 µg/mL	1.5 µg/mL	1.5 µg/mL	>250 µg/mL	MIC [8, 9]: < 3 µg/mL; MIC [8, 10]: < 3 µg/mL
N=C1N(CC(=O)Nc2cccc(NC(N)=O)c2)C[C@H](Cc2ccccc2)N1CCCc1ccccc1 [Compound 8]	> 25 µg/mL	12 to 25 µg/mL	–	–	–	–	–	antibacterial activity against the tested bacteria (in words) [8]: negligible activity
CCCCCCN1C(=N)N(CC(=O)NCCCCNC(=O)CN2C[C@H](Cc3ccccc3)N(CCCCCC)C2=N)C[C@@H]1Cc1ccccc1 [Compound 13]	1.5 µg/mL	0.75 µg/mL	6 to 12 µg/mL	> 25 µg/mL	1.5 µg/mL	3 to 6 µg/mL	>250 µg/mL	activity against P. aeruginosa (in words) [4]: reduced activity
CCCCCCN1C(=N)N(CC(=O)NCCCCCCNC(=O)CN2C[C@H](Cc3ccccc3)N(CCCCCC)C2=N)C[C@@H]1Cc1ccccc1 [Compound 14]	1.5 µg/mL	0.325 µg/mL	3 to 6 µg/mL	> 25 µg/mL	0.75 µg/mL	1.5 µg/mL	>250 µg/mL	activity against P. aeruginosa (in words) [4]: reduced activity
CCCCCCN1C(=N)N(CC(=O)NCCCCCCCCNC(=O)CN2C[C@H](Cc3ccccc3)N(CCCCCC)C2=N)C[C@@H]1Cc1ccccc1 [Compound 15]	0.75 to 1.5 µg/mL	0.75 µg/mL	1.5 to 3 µg/mL	> 25 µg/mL	1.5 µg/mL	0.325 µg/mL	>250 µg/mL	activity against P. aeruginosa (in words) [4]: reduced activity
CCCCCCCCN1C(=N)N(CC(=O)Nc2ccc(NC(=O)CN3C[C@H](Cc4ccccc4)N(CCCCCCCC)C3=N)cc2)C[C@@H]1Cc1ccccc1 [Compound 17]	> 25 µg/mL	1.5 µg/mL	–	–	–	–	–	antibacterial activity against the tested bacteria (in words) [8]: decreased activity
N=C1N(CC(=O)Nc2ccc(NC(=O)CN3C[C@H](Cc4ccccc4)N(CCC45CC6CC(CC(C6)C4)C5)C3=N)cc2)C[C@H](Cc2ccccc2)N1CCC12CC3CC(CC(C3)C1)C2 [Compound 21]	> 25 µg/mL	6 µg/mL	–	–	–	–	–	–
N=C1N(CC(=O)Nc2cccc(NC(=O)CN3C[C@H](Cc4ccccc4)N(CCC45CC6CC(CC(C6)C4)C5)C3=N)c2)C[C@H](Cc2ccccc2)N1CCC12CC3CC(CC(C3)C1)C2 [Compound 22]	> 25 µg/mL	3 µg/mL	–	–	–	–	–	–
CCCCCCN1C(=N)N(CC(=O)Nc2cccc(NC(=O)CN3C[C@H](CC(C)C)N(CCCCCC)C3=N)c2)C[C@@H]1CC(C)C [Compound 23]	1.5 to 3 µg/mL	1.5 µg/mL	0.75 µg/mL	6 to 12 µg/mL	1.5 µg/mL	0.75 µg/mL	200 µg/mL	–
Colistin [reference compound]	–	–	–	–	–	–	–	MIC K. pneumoniae [3]: 0.5 µg/mL; MIC P. aeruginosa ([4]; Gram −, 16 h, 37° C.): 1.0 µg/mL; MIC E. coli [1]: 0.5 µg/mL; MIC MRSA [2]: >50 µg/mL; MIC MRSE [5]: >50 µg/mL; MIC VRE [6]: >50 µg/mL

Second part, led by results:

MIC [1]	MIC [2]	MIC [3]	MIC ([4]; Gram −, 16 h, 37° C.)	MIC [5]	MIC [6]	Compound	Hemolysis (HC50) [7]	other results
> 25 µg/mL	> 25 µg/mL	–	–	–	–	N=C1N[C@@H](Cc2ccccc2)CN1CC(=O)Nc1cccc(NC(=O)CN2C[C@H](Cc3ccccc3)NC2=N)c1 [Compound 2]	–	–
> 25 µg/mL	12 to 25 µg/mL	–	–	–	–	N#CNc1cccc(NC(=O)CN2C[C@H](Cc3ccccc3)N(CCCc3ccccc3)C2=N)c1 [Compound 7]	–	antibacterial activity against the tested bacteria (in words) [8]: negligible activity
3 to 6 µg/mL	0.75 µg/mL	3 to 6 µg/mL	> 25 µg/mL	0.75 to 1.5 µg/mL	1.5 to 3 µg/mL	N=C1N(CC(=O)NCCCCCCNC(=O)CN2C[C@H](Cc3ccccc3)N(CCCc3ccccc3)C2=N)C[C@H](Cc2ccccc2)N1CCCc1ccccc1 [Compound 9]	100 µg/mL	HC50 ([7]; text b247, unit as printed): 100 µg/mL; activity against P. aeruginosa (in words) [4]: not active
> 25 µg/mL	> 25 µg/mL	–	–	–	–	N=C1N(CC(=O)Nc2ccc(-c3ccc(NC(=O)CN4C[C@H](Cc5ccccc5)N(CCCc5ccccc5)C4=N)cc3)cc2)C[C@H](Cc2ccccc2)N1CCCc1ccccc1 [Compound 10]	–	antibacterial activity against the tested bacteria (in words) [8]: not active
> 25 µg/mL	1.5 µg/mL	–	–	–	–	CCCCCCCCN1C(=N)N(CC(=O)Nc2cccc(NC(=O)CN3C[C@H](Cc4ccccc4)N(CCCCCCCC)C3=N)c2)C[C@@H]1Cc1ccccc1 [Compound 18]	–	antibacterial activity against the tested bacteria (in words) [8]: decreased activity
12 µg/mL	0.75 µg/mL	1.5 to 3 µg/mL	> 25 µg/mL	0.33 µg/mL	0.75 µg/mL	N=C1N(CC(=O)Nc2ccc(NC(=O)CN3C[C@H](Cc4ccccc4)N(CCCC4CCCCC4)C3=N)cc2)C[C@H](Cc2ccccc2)N1CCCC1CCCCC1 [Compound 19]	5 µg/mL	–
12 µg/mL	0.325 µg/mL	1.5 to 3 µg/mL	> 25 µg/mL	0.33 µg/mL	1.5 µg/mL	N=C1N(CC(=O)Nc2cccc(NC(=O)CN3C[C@H](Cc4ccccc4)N(CCCC4CCCCC4)C3=N)c2)C[C@H](Cc2ccccc2)N1CCCC1CCCCC1 [Compound 20]	26 µg/mL	–
> 50 µg/mL	0.5 µg/mL	> 50 µg/mL	> 50 µg/mL	0.5 µg/mL	1 µg/mL	CCCCCCCCCC(=O)N[C@@H](Cc1c[nH]c2ccccc12)C(=O)N[C@H](CC(N)=O)C(=O)N[C@@H](CC(=O)O)C(=O)N[C@@H]1C(=O)NCC(=O)N[C@@H](CCCN)C(=O)N[C@@H](CC(=O)O)C(=O)N[C@H](C)C(=O)N[C@@H](CC(=O)O)C(=O)NCC(=O)N[C@H](CO)C(=O)N[C@@H]([C@H](C)CC(=O)O)C(=O)N[C@@H](CC(=O)c2ccccc2N)C(=O)O[C@@H]1C [Daptomycin, reference compound]	–	–
